The values that follow come from patent US4457932A, “Anti-ulcer agents” (Bristol-Myers Company, priority 1983, dated 1984).

One may read the ED50 as the midpoint of the dose-response relation.

Read-outs that look alike come from different tables or passages of the source.

In experiment [1] the test system is ethanol-induced gastric ulcers (lesions). Description: Ethanol-induced ulcer model in the rat. In kind it is in vivo, Adult male Long-Evans rats. The following applies: for inhibition in vivo at 30 mg/kg: 30 mg/kg p.o.; for inhibition in vivo at 50 mg/kg: 50 mg/kg p.o. Here is the method: The effectiveness of the compounds of Formula I as cytoprotective agents was determined by an ethanol-induced ulcer model in the rat. This model is a modification of the procedure described by A. Robert in Scand. J. Gastroenterology 16: (Suppl. 67): 243 (1981). This model which screens for cytoprotective compounds is based on the ability of 100% ethanol to produce gastric ulcers (primarily in the fundic region of the stomach) in rats in a dose-related manner. Further details of the model are described below.
Adult male Long-Evans rats weighing 275-300 grams (Blue Spruce Farm, Alton, N.Y.) are used. Animals are housed individually in stainless steel cages with wire-mesh bottoms. The housing battery is arranged into six groups of five each, individually numbered from rat number 1, group 1 to rat number 5, group 6. Food and water are removed 24 and 18 hours, respectively, prior to testing. On the following day animals receive the test compound either p.o., s.c. or i.p. 30 minutes or more before administration of 100% ethanol (3.0 ml/kg) by gavage. Sixty minutes later the animals are sacrificed by administration of T-61 (Hoechst), 0.2 ml i.p.
An abdominal incision is made and, after clamping the esophagus just above the esophageal sphincter with tweezers, the stomach is carefully lifted from the abdominal cavity. Two cuts are made approximately 1/2" below the pyloric valve and 1/2" above the esophageal sphincter, and the stomach removed and set aside. This step is very rapid (2-3 seconds) and no loss of gastric contents is apparent. The size of the stomach including contents is noted as small, medium or large. Stomachs are cut open along the lesser curvature and the contents expressed into graduated centrifuge tubes.
Under these conditions, ethanol produces prominent macroscopic lesions in the corpus, but gross macroscopic changes are only very rarely observed in the forestomach. […] In addition, absence of the forestomach allows the remaining stomach to lie flat on a surface for photography and examination without undue stretching of the tissue. For these reasons, the forestomach (along with nongastric tissue) is removed.
The remaining corpus and antrum are rinsed in water and placed flat in a standard position. The tissue is photographed with a Polaroid close-up camera and scoring of lesions is done from this permanent record. Each photograph includes a reference scale in mm. Two scoring systems are used. For screening purposes each stomach is graded on a scale of 0 to 3 as described below:
Where more precise data are needed, e,g, in determining the ED50 for a compound, the total lesion area in mm is measured. Barely visible spots (petechiae) are scored as 1 mm each. For each treatment group, an average score is calculated. From this, the percent inhibition of lesion formation, I, is calculated as:
I=Lesion Score (controls)-Lesion Score(treated)X 100 Lesion Score(controls)
In dose-response studies, the ED50 (dose at which 50% inhibition of lesion formation occurs) is determined by probit analysis according to Finney.

A further experiment has as its system gastric secretion. Nature of the experiment: Gastric secretion in the conscious gastric fistula rat. Particulars: oral, read-out: oral ED50, block of gastric secretion. It is filed as in vivo. On the procedure: (§1) The compound of Formula I wherein R^4 is methyl and R^1, R^2 and R^3 are each hydrogen was also tested in several other ulcer models. […] The results in the above models are probably indicative of the lack of significant anti-secretory activity in the compound of the present invention.

The test system of experiment [2] is HCl-induced gastric lesions. Description: HCl-induced gastric lesions in the rat. It is filed as in vivo. The following applies: po, read-out: ED50 against HCl-induced gastric lesions.
In experiment [3] the test system is aspirin-stress gastric ulcer. Nature of the experiment: Aspirin-stress gastric ulcer model in rats. The following applies: 100 mg/kg p.o. It is filed as in vivo. Here is the method: as §1
In experiment [4] the test system is cysteamine-induced duodenal ulcer. Nature of the experiment: Cysteamine-induced duodenal ulcer model in rats. The following applies: dosed seven times over 30 hours (40 mg/kg, p.o.). It is filed as in vivo. Here is the method:
as §1

Where [5] appears, read: po, rat, read-out: Antiulcer Activity, % Inhibition (of lesion formation).

On to `O=c1c(-c2nnn[nH]2)cnc2ccc(Cl)cn12`, for which, in experiment [1] (po, 12.6 mg/kg p.o., rat, read-out: Antiulcer Activity, % Inhibition (of lesion formation)), the inhibition in vivo at 12.6 mg/kg was determined as 93%.

As to `O=c1c(-c2nnn[nH]2)cnc2c3c(ccn12)CCCC3`, in experiment [1] (setting [5]), the inhibition in vivo at 30 mg/kg turned out to be 68%.

`Cc1cccc2ncc(-c3nnn[nH]3)c(=O)n12`: the inhibition in vivo at 30 mg/kg in experiment [1] (setting [5]) was found to be 75%.

With `Cc1ccc2ncc(-c3nnn[nH]3)c(=O)n2c1`, the inhibition in vivo at 30 mg/kg in experiment [1] (setting [5]) came out at 79%.

In the case of `CCCCc1ccc2ncc(-c3nnn[nH]3)c(=O)n2c1`, the inhibition in vivo at 30 mg/kg in experiment [1] (setting [5]) was determined as 54%.

As for `Cc1cc(C)c2ncc(-c3nnn[nH]3)c(=O)n2c1`, the inhibition in vivo at 30 mg/kg in experiment [1] (setting [5]) stood at 92%.

In the case of `Cc1ccn2c(=O)c(-c3nnn[nH]3)cnc2c1`, the inhibition in vivo at 30 mg/kg in experiment [1] (setting [5]) came to 70%.

For `CCc1cccn2c(=O)c(-c3nnn[nH]3)cnc12`, the inhibition in vivo at 50 mg/kg in experiment [1] (setting [5]) was 96%.

For `CCCc1cccn2c(=O)c(-c3nnn[nH]3)cnc12`, in experiment [1] (setting [5]), the inhibition in vivo at 30 mg/kg was 77%.

Turning to `CCCCc1cccn2c(=O)c(-c3nnn[nH]3)cnc12`, in experiment [1] (setting [5]), the inhibition in vivo at 50 mg/kg was 41%.

On to `Cc1cccn2c(=O)c(-c3nnn[nH]3)cnc12`, for which the ED50 with gastric secretion was determined as 27 mg/kg; in experiment [2], 20.8 mg/kg. For the same compound, the “activity in aspirin-stress gastric ulcer model” value in experiment [3] was “inactive”. Besides, in experiment [4], the “activity in cysteamine-induced duodenal ulcer model” value was “inactive”.

For the compound `CN/C(=N/CCSCc1nc[nH]c1C)NC#N` [Cimetidine, reference compound], in experiment [1] (Rattus norvegicus), it took a dose of 235 mg/kg to reach the 50% effect level (ED50).

As for `CCCCC[C@H](O)/C=C/[C@H]1[C@H](O)CC(=O)[C@@H]1C/C=C\CCCC(=O)O` [PGE2, reference compound], in experiment [1] (oral, rat, read-out: oral ED50), the ED50 is 0.024 mg/kg.

As for `Cc1cccn2c(=O)c(-c3nnn[nH]3)cnc12` [drawing 30], the inhibition in vivo at 30 mg/kg in experiment [1] (setting [5]) turned out to be 88%. Also, in experiment [1] (po, rat, table footnote, read-out: ED50 (dose at which 50% inhibition of lesion formation occurs)), the ED50 was determined as 0.3 mg/kg.

sucralfate [reference compound]: in experiment [1] (oral, rat), the “oral ED50” value came out at 21 mg/kg.
